According to paper PMC8482815, “Targeting Host Glycolysis as a Strategy for Antimalarial Development” (Frontiers in Cellular and Infection Microbiology, 2021):
Values joined by “and” are separate entries in the source; they are usually repeats but may differ in a detail not shown here. Identical values can stand only once.

System: human erythrocytes
Assay: Untargeted metabolomics and 13C-glucose tracing of enolase inhibitor treated erythrocytes
Assay type: cell-based
Conditions: 0.5h
Experimental: Freshly collected erythrocytes were washed, resuspended to 10% hematocrit in buffer [25mM HEPES (pH 7.4), 120mM NaCl, 5.4mM KCl, 1.8mM CaCl2, and 1mM NaH2PO4], incubated for 1 hour at 37°C, then centrifuged at 2000xg for 5 minutes at 4°C, resuspended in fresh wash buffer to 30-40% hematocrit, and split into 210µL aliquots of packed erythrocytes. […] All samples were incubated at 37°C shaking at 500 RPM. Triplicate samples of supernatants and packed erythrocytes were collected at 0, 0.5, 1, and 6-hour intervals and snap-frozen in liquid N2.
RBC and media samples were extracted at 1:10 and 1:20 dilutions, respectively, in 5:3:2 MeOH : MeCN:H2O v/v/v, and supernatants analyzed on a Thermo Vanquish UHPLC coupled to a Thermo Q Exactive mass spectrometer, as extensively described ([Nemkov et al., 2015]; [Nemkov et al., 2017]). The extraction buffer was supplemented with 40uM 3-^13C lactate to allow absolute quantification of lactate isotopologues, including lactate generated via glycolysis ([1,2,3-^13C3] enriched) vs. the pentose phosphate pathway ([2,3-^13C2] enriched), as described ([Reisz et al., 2016]). Metabolite assignments, peak area integration and isotopologues distributions were determined using Maven (Princeton University) ([Nemkov et al., 2015]; [Nemkov et al., 2017]).
Data were auto-scaled and normalized to zero-hour time points. Metabolites were removed from the dataset if greater than 50% of the samples contained missing values or the relative standard deviation among replicates exceeded 25%. Additionally, data was filtered using the interquartile range to reduce near-constant values from the experiment by 5%.
A principal component analysis of preprocessed data was plotted with the 95% confidence interval minimum volume enclosing ellipsoid for each respective group (MetaboAnalyst, cluster, plotly). A two-way repeated measures analysis of variance (ANOVA) was performed with multiple comparisons corrected for using a false discovery rate p-value cutoff of 0.05. Metabolite-Pathway analysis was performed using the R package of MetaboAnalyst, as previously described ([Xia and Wishart, 2010]). Metabolite-Protein nodal analysis was performed using omicsnet.ca and as previously described ([Zhou and Xia, 2018]).

[1] = treated erythrocytes, one value per replicate sample, polarity +
[2] = treated erythrocytes, one value per replicate sample, polarity -
[3] = treated erythrocytes, replicate samples

CC(C)(C)C(=O)OCOP(=O)(OCOC(=O)C(C)(C)C)C1CCCN(O)C1=O (stereo not shown) [POMHEX]
AMP level (metabolomics signal) (replicate samples): 2.04E+06 and 4.36E+06 and 1.74E+06
ATP level (metabolomics signal) (replicate samples): 4.24E+03 and 2.55E+03 and 4.82E+03
Adenine level (metabolomics signal) (replicate samples): 1.54E+05 and 1.61E+05 and 1.63E+05
Cytosine level (metabolomics signal) (replicate samples): 6.37E+05 and 5.53E+05 and 6.73E+05
L-alanine level (metabolomics signal) (replicate samples): 1.10E+07 and 9.02E+06 and 1.16E+07
L-arginine level (metabolomics signal) (replicate samples): 8.79E+06 and 1.37E+07 and 1.09E+07
L-asparagine level (metabolomics signal) (replicate samples): 5.66E+06 and 6.04E+06 and 5.52E+06
L-aspartate level (metabolomics signal) (replicate samples): 5.07E+07 and 4.67E+07 and 4.55E+07
L-cysteine level (metabolomics signal) (replicate samples): 3.90E+05 and 9.84E+05 and 3.84E+05
L-glutamate level (metabolomics signal) (replicate samples): 3.66E+07 and 3.55E+07 (2×)
L-glutamine level (metabolomics signal) (replicate samples): 6.00E+07 and 6.77E+07 and 7.03E+07
L-histidine level (metabolomics signal) (replicate samples): 1.31E+06 and 1.35E+06 and 1.30E+06
L-isoleucine level (metabolomics signal) (replicate samples): 1.70E+07 and 1.55E+07 and 1.61E+07
L-leucine level (metabolomics signal) (replicate samples): 2.16E+08 and 2.81E+08 and 2.05E+08
L-lysine level (metabolomics signal) (replicate samples): 2.55E+06 and 2.50E+06 and 1.99E+06
L-methionine level (metabolomics signal) (replicate samples): 1.95E+07 and 2.57E+07 and 1.85E+07
L-phenylalanine level (metabolomics signal) (replicate samples): 1.37E+07 and 1.80E+07 and 1.25E+07
L-proline level (metabolomics signal) (replicate samples): 4.87E+07 and 5.22E+07 and 3.89E+07
L-serine level (metabolomics signal) (replicate samples): 4.56E+06 and 4.84E+06 and 4.45E+06
L-threonine level (metabolomics signal) (replicate samples): 6.27E+06 and 7.92E+06 and 7.08E+06
L-tryptophan level (metabolomics signal) (replicate samples): 5.02E+06 and 4.78E+06 and 4.62E+06
L-tyrosine level (metabolomics signal) (replicate samples): 2.37E+07 (2×) and 3.01E+07
L-valine level (metabolomics signal) (replicate samples): 1.71E+08 and 1.67E+08 and 1.60E+08
dCMP level (metabolomics signal) (replicate samples): 2.34E+04 and 2.37E+04 and 1.78E+04
dTMP level (metabolomics signal) (replicate samples): 9.79E+05 and 1.15E+06 and 1.17E+06
glycine level (metabolomics signal) (replicate samples): 2.21E+06 and 2.32E+06 and 2.35E+06
N-Acyl-D-aspartate (C06380) metabolite signal [1]: 2.31E+05 and 2.56E+05 and 2.58E+05
Poly-gamma-D-glutamate (C05723) metabolite signal [1]: 3.95E+07 and 4.61E+07 and 4.86E+07
D-Ribitol 5-phosphate (C01068) metabolite signal [2]: 2.02E+04 and 2.67E+04 and 2.32E+04
D-glucono-1,5-lactone (C00198) metabolite signal [2]: 5.42E+05 and 4.39E+05 and 4.31E+05
L-Noradrenaline (C00547) metabolite signal [2]: 7.51E+04 and 1.32E+05 and 6.59E+04
Oxalosuccinate (C05379) metabolite signal [2]: 1.39E+05 and 1.40E+05 and 1.27E+05
Pyridoxamine (C00534) metabolite signal [2]: 3.25E+04 and 2.97E+04 and 2.95E+04
Thioredoxin disulfide (C00343) metabolite signal [2]: 5.85E+04 and 1.53E+04 and 4.46E+04
1-4-beta-D-Xylan (metabolite signal) [3]: 2.40E+05 and 2.75E+05 and 1.64E+05
2-Hydroxyglutarate/Citramalate (C02630) metabolite signal [3]: 1.06E+05 and 6.70E+04 and 9.81E+04
5-6-Dihydrothymine (C00906) metabolite signal [3]: 3.14E+05 and 2.95E+05 and 2.82E+05
5-10-Methenyltetrahydrofolate (metabolite signal) [3]: 3.07E+05 and 3.19E+05 and 3.47E+05
5-Hydroxyisourate (C11821) metabolite signal [3]: 6.72E+06 and 4.60E+06 and 5.11E+06
5-L-Glutamyl-taurine (metabolite signal) [3]: 1.65E+05 and 1.74E+05 and 8.68E+04
5-Oxoproline (metabolite signal) [3]: 1.01E+06 and 8.27E+05 and 8.80E+05
(S)(+)-Allantoin (C02350) metabolite signal [3]: 2.15E+04 and 0.00E+00 and 2.93E+04
Allantoate (C00499) metabolite signal [3]: 2.52E+05 and 3.85E+05 and 2.39E+05
Ascorbate (metabolite signal) [3]: 9.38E+04 and 1.10E+05 and 1.13E+05
CMP-N-acetylneuraminate (metabolite signal) [3]: 2.14E+04 and 1.46E+04 and 2.19E+04
Carnosine (metabolite signal) [3]: 2.66E+05 and 1.54E+05 and 2.52E+05
Citrate (C00158) metabolite signal [3]: 4.21E+04 and 3.38E+04 and 3.43E+04
Creatine (metabolite signal) [3]: 3.82E+08 and 3.13E+08 and 3.15E+08
Creatinine (metabolite signal) [3]: 3.99E+06 and 3.09E+06 and 3.73E+06
Cys-Gly (metabolite signal) [3]: 2.17E+06 and 2.13E+06 and 1.97E+06
D-Glucosamine (metabolite signal) [3]: 2.57E+05 and 3.05E+05 and 2.16E+05
D-Glucose (C00031) metabolite signal [3]: 6.04E+06 and 6.91E+06 and 5.92E+06
D-Ribose (C00121) metabolite signal [3]: 1.90E+05 and 1.42E+05 and 1.71E+05
Dehydroascorbate (metabolite signal) [3]: 1.55E+04 and 2.20E+04 and 1.72E+04
Dihydrofolate (metabolite signal) [3]: 1.72E+06 and 1.97E+06 and 2.05E+06
Dimethylglycine (metabolite signal) [3]: 1.06E+06 and 1.08E+06 and 9.75E+05
Diphosphate (C00013) metabolite signal [3]: 3.53E+03 and 8.59E+03 and 2.40E+03
Fumarate (C00122) metabolite signal [3]: 1.24E+05 and 9.52E+04 and 1.10E+05
Glutathione (C00051) metabolite signal [3]: 1.46E+08 and 1.38E+08 and 1.22E+08
Glutathione disulfide (metabolite signal) [3]: 2.34E+05 and 1.46E+05 and 2.55E+05
Hypoxanthine (C00262) metabolite signal [3]: 4.07E+04 and 4.68E+04 and 4.37E+04
IMP (C00130) metabolite signal [3]: 0.00E+00 and 1.71E+05 and 8.01E+04
Inosine (C00294) metabolite signal [3]: 1.09E+05 and 6.95E+04 and 7.35E+04
L-Citrulline (metabolite signal) [3]: 4.16E+06 and 4.12E+06 and 4.14E+06
L-Homoserine (metabolite signal) [3]: 1.91E+05 and 2.39E+05 and 1.86E+05
Lactate (C01432) metabolite signal [3]: 8.53E+06 and 7.59E+06 and 8.32E+06
Malate (C00149) metabolite signal [3]: 2.09E+05 and 1.30E+05 and 1.62E+05
Mannitol (C00392) metabolite signal [3]: 1.34E+05 and 1.15E+05 and 1.42E+05
N-Acetylneuraminate (metabolite signal) [3]: 3.02E+04 and 1.89E+04 and 1.91E+04
N-Glycoloyl-neuraminate (metabolite signal) [3]: 1.66E+05 and 1.75E+05 and 1.62E+05
NAD+ (C00003) metabolite signal [3]: 5.24E+05 and 2.47E+05 and 4.46E+05
Nicotinamide (C00153) metabolite signal [3]: 3.74E+07 and 4.23E+07 and 3.90E+07
Ornithine (metabolite signal) [3]: 2.17E+06 and 2.00E+06 and 1.65E+06
Oxaloacetate (C00036) metabolite signal [3]: 3.93E+04 and 5.60E+04 and 5.05E+04
Phosphoserine (metabolite signal) [3]: 5.17E+04 and 3.63E+04 and 3.54E+04
Putrescine (metabolite signal) [3]: 7.82E+04 and 7.87E+04 and 8.82E+04
Pyridoxal (C00250) metabolite signal [3]: 7.34E+04 and 7.61E+04 and 7.64E+04
Pyruvate (C00022) metabolite signal [3]: 5.86E+05 and 6.64E+05 and 6.39E+05
S-Glutathionyl-L-cysteine (metabolite signal) [3]: 1.61E+05 and 1.05E+05 and 1.77E+05
Sedoheptulose 1-phosphate (C06222) metabolite signal [3]: 1.57E+04 and 1.33E+04 and 1.23E+04
Spermidine (metabolite signal) [3]: 1.10E+07 and 8.21E+06 and 9.51E+06
Spermine (metabolite signal) [3]: 1.10E+07 and 9.13E+06 and 8.60E+06
Succinate (C00042) metabolite signal [3]: 7.14E+04 and 9.44E+04 and 6.66E+04
Thymidine (C00214) metabolite signal [3]: 1.01E+04 and 1.94E+04 and 1.37E+04
UDP (C00015) metabolite signal [3]: 1.69E+05 and 2.66E+05 and 2.03E+05
UDP-N-acetyl-D-glucosamine (metabolite signal) [3]: 1.85E+04 (2×) and 1.14E+04
UDP-glucose (C00029) metabolite signal [3]: 3.86E+04 and 2.14E+04 and 2.96E+04
Urate (C00366) metabolite signal [3]: 3.40E+04 and 3.79E+04 and 3.24E+04
Xanthine (C00385) metabolite signal [3]: 3.40E+05 and 3.32E+05 and 3.09E+05
alpha-D-Glucosamine 1-phosphate (metabolite signal) [3]: 2.32E+06 and 1.61E+06 and 1.74E+06
alpha-D-Ribose 1-phosphate (C00620) metabolite signal [3]: 1.49E+05 and 1.17E+05 and 8.56E+04
gamma-Glutamyl-gamma-aminobutyrate (metabolite signal) [3]: 9.84E+04 and 1.13E+05 and 1.05E+05
gamma-L-Glutamyl-D-alanine (metabolite signal) [3]: 3.61E+04 and 2.95E+04 and 2.86E+04
gamma-L-Glutamyl-L-cysteine (metabolite signal) [3]: 2.26E+04 and 4.82E+04 and 4.78E+04
